Measurements published in paper PMC8152350, “High cytotoxicity of betulin towards fish and murine fibroblasts: Is betulin safe for nonneoplastic cells?” (BMC Veterinary Research, 2021).
Values after ≈ are worked out from the molar mass of the structure shown. Where two headings read alike, the source gives them in different places.

How the values were obtained:
[1] = NRU assay (lysosomal membrane integrity), murine fibroblasts; format: cell-based, mouse; settings: mouse, NIH/3T3 embryonic fibroblasts, n = 3
Method: (§1) All experiments were repeated three times.
(§2) The NRU assay evaluates lysosomal membrane integrity. It measures neutral red dye accumulation within lysosomes of viable cells.
(§3) The NRU assay was performed using a commercially available kit (TOX4) (Sigma-Aldrich, Poland) according to the manufacturer’s protocol. The full description of the test procedure was also provided in a published article.

NIH/3T3 cells [2] = assay: as above; format: cell-based, mouse; settings: NIH/3T3, beginning at 48 h
Method: as §1, §2, §3

[3] = NRU assay (lysosomal membrane integrity), fish fibroblasts; format: cell-based, bluegill; settings: bluegill, BF-2 caudal trunk fibroblasts, mean ± SD, n = 3
Method: (§4) BF-2 (ATCC CCL-91) bluegill caudal trunk fibroblasts were grown in minimum essential medium (Eagle, EBSS) supplemented with 1 % nonessential amino acids (NEAAs), 10 % foetal bovine serum and 1 % antibiotic-antimycotic solution at 23 °C in a humidified atmosphere with 5 % CO2.
as §1, §2, §3

BF-2 cells [4] = assay: as above; format: cell-based, bluegill; settings: BF-2, regardless of the time of incubation
Method: as §4, §1, §2, §3

in vitro = format: cell-based, mouse; settings: mouse
Method: as §1
(§5) The sulforhodamine B colorimetric assay measures the cellular protein content, and the assay results are proportional to the number of cells.
(§6) The SRB assay was performed using a commercially available kit (TOX6) (Sigma-Aldrich, Poland) according to the manufacturer’s protocol. In this assay, SRB binds to protein components of trichloroacetic acid-fixed cells, and the protein-bound dye is extracted with Tris. The results obtained are presented as the percentage of the total cellular protein content in control (nontreated) cells.

NIH/3T3 cells [5] = assay: in vitro; format: cell-based, mouse; settings: NIH/3T3, 72 h
Method: as §1, §5, §6

[6] = SRB assay (total cellular protein content), fish fibroblasts; format: cell-based, bluegill; settings: bluegill, BF-2 caudal trunk fibroblasts, n = 3
Method: as §4, §1, §5, §6

BF-2 cells [7] = assay: as above; format: cell-based, bluegill; settings: BF-2
Method: as §4, §1, §5, §6

BF-2 cells [8] = assay: LDH leakage assay (cellular membrane integrity), fish fibroblasts; format: cell-based, bluegill; settings: BF-2, 24 h
Method: as §4, §1
The LDH assay measures leakage of the stable cytosolic enzyme lactate dehydrogenase into the culture medium, which is an indicator of irreversible cell membrane damage and cell death.
The LDH assay was performed using a commercially available kit (TOX7) (Sigma-Aldrich, Poland) according to the manufacturer’s protocol. The full description of the test procedure was also reported previously. The results obtained are reported as the percentage of LDH leakage to the culture media in control (nontreated) cells.

[9] = system: B16 cells (B164A5 and B16F10); design: method as in PMID 25756279; settings: 150 µM betulin; cited from earlier work
[10] = system: murine fibroblasts (Balb 3T3 line); design: method as in PMID 23595090; settings: Balb 3T3, incubation time not given; cited from earlier work
[11] = system: human skin fibroblasts (WS1); design: method as in PMID 16787747; settings: WS1, resazurin reduction test, 48 h, cited from earlier work
K562 = system: K562; design: method as in PMID 12697374; settings: K562 leukaemia; read-out: IC50 of betulin; cited from earlier work
G361 = system: G361; design: method as in PMID 12697374; settings: G361 melanoma; read-out: IC50 of betulin; cited from earlier work
SK-MEL-28 = system: SK-MEL-28; design: method as in PMID 12697374; settings: SK-MEL-28 melanoma; read-out: IC50 of betulin; cited from earlier work
GOTO = system: GOTO; design: method as in PMID 12697374; settings: GOTO neuroblastoma; read-out: IC50 of betulin; cited from earlier work
NB-1 = system: NB-1; design: method as in PMID 12697374; settings: NB-1 neuroblastoma; read-out: IC50 of betulin; cited from earlier work
DLD-1 = system: DLD-1; design: method as in PMID 16787747; settings: read-out: IC50 of betulin; cited from earlier work
B16-F1 (mouse melanoma) = system: B16-F1 (mouse melanoma); design: method as in PMID 16787747; settings: read-out: IC50 of betulin; cited from earlier work
MCF-7 (breast cancer) = system: MCF-7 (breast cancer); design: method as in PMID 22627971, PMID 23379693; settings: MCF-7, 20 µM; cited from earlier work
T47D (breast cancer) = system: T47D (breast cancer); design: method as in PMID 23595090; settings: SRB assay; cited from earlier work
P388 (murine leukaemia) = system: P388 (murine leukaemia); design: method as in PMID 23595090; settings: P388, MTT assay; cited from earlier work
porcine chondrocytes = settings: cited from earlier work
[12] = system: human skin fibroblasts (HSF); settings: 24-h exposure, cited from earlier work

In the case of `C=C(C)[C@@H]1CC[C@]2(CO)CC[C@]3(C)[C@H](CC[C@@H]4[C@@]5(C)CC[C@H](O)C(C)(C)[C@@H]5CC[C@]43C)[C@@H]12` [betulin, Betulin], the CC50 at 24 h ([1]; NIH/3T3, 24 h, read-out: CC50 betulin NRU 24 h) is reported as over 15.6 µg/mL, the CC50 at 48 h ([1]; NIH/3T3, 48 h, mean ± SD, read-out: CC50 betulin NRU 48 h) is reported as 7.33 ± 2.94 µg/mL (≈ 16.6 µM) and the CC50 at 72 h ([1]; NIH/3T3, 72 h, mean ± SD, read-out: CC50 betulin NRU 72 h) is reported as 13 ± 2.94 µg/mL (≈ 29.3 µM). For the same molecule, the “betulin concentration causing considerable decrease in viability (NRU)” value (NIH/3T3 cells [2]) was at least 3.9 µg/mL, the CC50 at 24 h ([3]; BF-2, 24 h, read-out: CC50 betulin NRU 24 h) was 27.6 ± 9.01 µg/mL (≈ 62.4 µM) and the CC50 at 48 h ([3]; BF-2, 48 h, read-out: CC50 betulin NRU 48 h) was 16.5 ± 3.6 µg/mL (≈ 37.2 µM). For the same molecule, the CC50 at 72 h ([3]; BF-2, 72 h, read-out: CC50 betulin NRU 72 h) was 14.5 ± 3.41 µg/mL (≈ 32.8 µM), the “betulin concentration causing considerable decrease in viability (NRU)” value (BF-2 cells [4]) was “at least 15.625 µg/mL” and the CC50 (in vitro; NIH/3T3, 24 h, mean ± SD, n = 3, read-out: CC50 betulin SRB 24 h) was 10.9 ± 7.34 µg/mL (≈ 24.6 µM). For the same molecule, the CC50 (in vitro; NIH/3T3, 48 h, mean ± SD, n = 3, read-out: CC50 betulin SRB 48 h) was 4.05 ± 1.24 µg/mL (≈ 9.15 µM), the CC50 (in vitro; NIH/3T3, 72 h, mean ± SD, n = 3, read-out: CC50 betulin SRB 72 h) was 3.76 ± 0.572 µg/mL (≈ 8.48 µM) and the CC50 (in vitro; NIH/3T3, depending on incubation time (24-72 h), read-out: CC50 of betulin in SRB assay, range over incubation times) was 3.76 to 10.9 µg/mL (≈ 8.48 to 24.6 µM). For the same molecule, the “betulin concentration causing considerable decrease in total cellular protein content (SRB)” value (NIH/3T3 cells [5]) was at least 1.95 µg/mL, the CC50 at 24 h ([6]; BF-2, 24 h, read-out: CC50 betulin SRB 24 h) was over 31.2 µg/mL and the CC50 at 48 h ([6]; BF-2, 48 h, read-out: CC50 betulin SRB 48 h) was over 31.2 µg/mL. The CC50 at 72 h ([6]; BF-2, 72 h, read-out: CC50 betulin SRB 72 h) was over 31.2 µg/mL, the “betulin concentration causing considerable decrease in the number of cells (SRB)” value (BF-2 cells [7]) was “at least 15.625 µg/mL” and the “betulin concentration inducing substantial LDH leakage” value (BF-2 cells [8]) was 7.8 µg/mL. For the same molecule, the “trypan blue exclusion capacity” value [9] was 60%, the “IC50 of betulin (SRB)” value [10] was 47.3 µg/mL and the “IC50 of betulin, converted” value ([11]; conversion of µM value) was “ca. 1.6 µg/ml”. For the same molecule, the IC50 ([11]; read-out: IC50 of betulin) was 3.58 µM, the IC50 (K562) was 14.5 µM and the IC50 (G361) was 12.4 µM. For the same molecule, the IC50 (SK-MEL-28) was 16.2 µM, the IC50 (GOTO) was 17.1 µM and the IC50 (NB-1) was 16.5 µM. For the same molecule, the IC50 (DLD-1) was 6.6 µM, the IC50 (B16-F1 (mouse melanoma)) was 13.8 µM and the “inhibitory activity of betulin” value (MCF-7 (breast cancer)) was 53.2%. The IC50 of betulin (T47D (breast cancer)) was 32.4 µg/mL, the IC50 of betulin (P388 (murine leukaemia)) was 5.5 µg/mL and the “betulin concentrations not affecting integrity of the cytoplasmic membrane (LDH)” value (porcine chondrocytes) was “up to 5.12 µg/mL”. The “betulin concentrations causing considerable LDH leakage, converted” value ([12]; conversion of µM value) was at least 4.4 µg/mL, the “betulin concentrations not toxic, converted” value ([12]; conversion of µM value) was at most 2.2 µg/mL and the “betulin concentrations causing considerable LDH leakage” value [12] was at least 10 µM. The “betulin concentrations not toxic” value [12] was “up to 5 µM”.
